One data set deals with extrapyramidal symptoms. As to conditions: compared with chlorpromazine; cited from earlier work.
Data set [1] deals with shock avoidance acquisition in the rat. Put plainly: Antagonism of shock avoidance acquisition in the rat (antipsychotic activity). In kind it is in vivo. Conditions: ip, rats, i.p., piperidylidene derivatives (Table II), read-out: Antagonism of Avoidance Acquisition, Rats, ED50 (A). On the procedure: (§1) To predict the potential ability of a drug to cause EPS, the ratio of its ED50 (i.p.) for antagonism of amphetamine-induced rotation to its ED50 (i.p.) for blockade of shock avoidance acquisition in the rat, a procedure for assessing antipsychotic activity, (R/A ratio) is calculated.

For data set [2], the system named is amphetamine-induced rotation vs. avoidance acquisition. As to the kind of experiment: R/A ratio: ED50 amphetamine-induced rotation / ED50 avoidance acquisition. In kind it is in vivo, rat. As to the method: as §1
The subject of data set [3] is striatal dopamine receptors. As to the kind of experiment: Antagonism of amphetamine-induced rotation in rats with unilateral substantia nigra lesions (Ungerstedt). In kind it is in vivo, rat. Conditions: i.p., piperidylidene derivatives (Table II).
Text: There is evidence that antipsychotic drugs cause EPS by interfering with neurotransmission in a nigrostriatal dopaminergic pathway. It is thought that they block dopamine receptors in the neostriatum. Therefore, the ability of a drug to block striatal dopamine receptors is a measure of its EPS liability.
To assess the potency of drugs in blocking striatal dopamine receptors a procedure was used which was developed by Ungerstedt [Ungerstedt and Arbuthnott, Brain Res. 24 485 (1970); Ungerstedt, Acta physiol. scand., Suppl. 367, 49 (1971)] using rats with unilateral lesions of the substantia nigra induced by injection of 6-hydroxydopamine. This treatment causes degeneration of the nigrostriatal dopaminergic pathway accompanied by a marked decrease in the dopamine content of the neostriatum on the side of the lesion. Animals with this lesion develop postural and motor asymmetries which are altered by drugs which affect dopaminergic activity. Amphetamine, which releases dopmine and norepinephrine from catecholaminergic neurons, causes these rats to rotate unidirectionally toward the side of the lesion. Since there is a much larger amount of dopamine to be released by amphetamine from the intact nigrostriatal neurons on the non-lesioned side than from those remaining on the lesioned side, the rotational behavior is apparently due to the preponderance of activation of striatal dopamine receptors on the intact side. The ability of a drug to antagonize the rotational behavior is therefore a measure of its ability to block striatal dopamine receptors and is indicative of its potential to produce EPS.
as §1

Where [4] appears, read: ratio of i.p. ED50 values in rats, piperidylidene derivatives (Table II).

In the case of `CSc1ccc2c(c1)N(CCC1CCCCN1C)c1ccccc1S2` (stereo not drawn) [Thioridazine], the “propensity to cause EPS” value in the data set on extrapyramidal symptoms is “known to produce EPS to a lesser extent than chlorpromazine”.
Consider `CN1CCC(=C2c3cc(Cl)ccc3COc3ccccc32)CC1` [XXVII, 4-(9-chloro-11(6H)-dibenz[b,e]oxepinylidene)-1-methylpiperidine], for which the ED50 (in general, the dose that gives a 50% effect, or the effect in half of the subjects) in data set [1] is 1.6 mg/kg. In data set [2] (setting [4]), the R/A ratio is more than 15. For the same compound, the “Antagonism of Amphetamine-induced Rotation, Rats, ED50 (R)” value (“Antagonism” below) in data set [3] is recorded as more than 24 mg/kg.
Take `Clc1ccc2c(c1)C(=C1CCN(CC3CCC3)CC1)c1ccccc1O2` [XXIV, 4-(2-chloro-9-xanthenylidene)-1-cyclobutylmethylpiperidine]: the ED50 in data set [1] came out at 0.5 mg/kg. Also, the R/A ratio in data set [2] (setting [4]) is on record as 3.2. Also, the “Antagonism” value in data set [3] was determined as 1.6 mg/kg.
Turning to `Clc1ccc2c(c1)C(=C1CCN(CC3CCC3)CC1)c1ccccc1S2` [XIX, 4-(2-chloro-9-thioxanthenylidene)-1-cyclobutylmethylpiperidine], in data set [1], the ED50 amounted to 0.5 mg/kg. Also, in data set [2] (rat, in vivo, ip), the R/A ratio was determined as 3.8. Besides, in data set [3], the “Antagonism” value was 1.9 mg/kg.
`CN1CCC(=C2c3ccccc3COc3ccc(Cl)cc32)CC1` [VII, 4-(2-chloro-11(6H)-dibenz[b,e]oxepinylidene)-1-methylpiperidine]: the ED50 in data set [1] was determined as 1.7 mg/kg. Further, the R/A ratio in data set [2] (setting [4]) was determined as 5.5. Further, the “Antagonism” value in data set [3] worked out at 9.4 mg/kg.
For `CN1CCC(=C2c3ccccc3COc3cc(Cl)ccc32)CC1` [XXXIII, 4-(3-chloro-11(6H)-dibenz[b,e]oxepinylidene)-1-methylpiperidine] the same measures were 7.5 mg/kg, more than 3 and more than 25 mg/kg.
Turning to `CN1CCN(C2=Nc3cc(Cl)ccc3Nc3ccccc32)CC1` [Clozapine, reference compound], in the data set with extrapyramidal symptoms, the “propensity to cause EPS” value is on record as “known to produce EPS to a lesser extent than chlorpromazine”. Moreover, the R/A ratio in data set [2] (ratio of i.p. ED50 values in rats, clinically established antipsychotics (Table I)) was found to be 3.8.
For the compound `CN1CCC(=C2c3ccc(F)cc3Sc3ccc(F)cc32)CC1` [XXIX, 4-(2,6-difluoro-9-thioxanthenylidene)-1-methylpiperidine], the ED50 in data set [1] turned out to be 0.5 mg/kg. Further, the R/A ratio in data set [2] (setting [4]) was found to be 4.8. The “Antagonism” value in data set [3] worked out at 2.4 mg/kg.
For `CN1CCC(=C2c3ccccc3Sc3ccc(F)cc32)CC1` [XII, 4-(2-fluoro-9-thioxanthenylidene)-1-methylpiperidine], in that order: 1.8 mg/kg, 3.1 and 5.5 mg/kg.

The values are drawn from patent US4086350A, “Pharmaceutical compositions and method of producing anti-psychotic activity without extrapyramidal symptoms” (priority 1975, dated 1978).
